These results are taken from patent US4818684A, “Auto-anti-idiotypic monoclonal antibodies to steroid receptors and uses thereof” (The Trustees of Columbia University in the City of New York, priority 1985, dated 1989).

The test system of assay [1] is binding of 8G11-C6 to anti-steroid Fab fragments. Nature of the assay: ELISA inhibition of binding of 8G11-C6 to anti-steroid Fab fragments. Conditions: ELISA (FIGS. 7, 8, 9). The procedure:
Controls with no inhibitor were included.
FIG. 9. […] The method used was similar to that described in the exerimental procedure. […] 200λ of the incubation mixture was then added to microtiter wells previously coated with 10 ng anti-steroid Fab fragments and incubated for 2 hrs at 37° C.
The presence of anti-idiotypic antibodies in the hybridoma culture medium were assayed by a double antibody sandwich ELISA. […] After washing twice with 0.01 M phosphate buffer--0.14M NaCl, pH 7.4, containing 0.05% Tween-20 (PBS-Tween), the culture medium from the hybridomas was added and incubated at 37° C. for 2 hrs. The wells were washed three times with PBS-Tween and 200 microliters of 1:3,000 dilution in PBS-Tween of goat anti-mouse 1gM-1gG horseradish peroxidase (Tago) was added. After incubating 1 hr at 37°, the wells were washed three times with PBS-tween and 200 microliters substrate (7 mg o-phenylenediamine dichloride in 10 ml 0.1 M citrate-phosphate buffer, pH 4.8 containing 5 microliters of 30% H2 O2) was added. Depending on the intensity of the color, the reaction was stopped after 5-10 min by the addition of 50 microliters 8N H2 SO4 and the OD determined (Titretek) at 492 nm.
Background: In an ELISA, binding on a coated surface is turned into a signal by an enzyme label.

The target in assay [2] is anti-steroid (unprocessed rabbit serum 540). Nature of the assay: Competitive inhibition of binding of [3H] triamcinolone to anti-steroid, unprocessed rabbit serum 540. Conditions: for Kd: read-out: Competitive inhibition of binding of [3H] triamcinolone, Rabbit Serum 540 Unprocessed (apparent Kd). How it is done: FIG. 4. […] See legend to Table 1 for the experimental procedure.
New Zealand white rabbits were immunized by multiple intradermal injections of a total of 1 ml of triamcinolone-BSA (2 mg/ml) in saline emulsified with an equal volume of complete Freunds adjuvant. Booster injections were given three weeks later and then at monthly intervals. Animals were bled bi-weekly from the ear vein and the sera stored at 4° C. until required.

The target of assay [3] is affinity purified antisteroid. Nature of the assay: Competitive inhibition of binding of [3H] triamcinolone to affinity purified antisteroid. Details: species or system rabbit. Conditions: for Kd: read-out: Competitive inhibition of binding of [3H] triamcinolone, Affinity purified (apparent Kd). The procedure:
Thirty to 40 ml of serum obtained in part (a) of this example were passed slowly (±3.5 ml/hr) through the AH-Sepharose 4B triamcinolone column prepared according to (b) above. After washing with PBS to remove all unbound protein, the antibody was eluted with 0.2 M glycine pH 2.2 or 2.8. The eluate was dialyzed against 2 liters, 0.01 M PBS buffer pH 7.4 and the buffer changed at least 4 times before concentrating by vacuum dialysis at 4° C.
the glucocorticoid receptor, unprocessed rabbit serum 540, affinity
purified antisteroid and antisteroid Fab fragments. Assays with the […]

Assay [4] concerns the target antisteroid Fab fragments. Nature of the assay: Competitive inhibition of binding of [3H] triamcinolone to antisteroid Fab fragments. To be noted: read-out: Competitive inhibition of binding of [3H] triamcinolone, Rabbit serum 541 Fab fragments (apparent Kd). How it is done: To the dialysate was added 0.1 M dithiothreitol (DTT) (15 microliters) EDTA (2 mg) and 0.2 mg mercuripapain (5 microliters) and the solution was incubated overnight at 37° C. It was then dialyzed against 4 l distilled H2 O for 3 hrs and then against 1 liter of PBS for 2 hrs and then applied to a Sephadex G100 column (1×5×90 cms) and eluted (±5 ml/hr) with 0.01 M PBS pH 7.4. One ml fractions were collected. Fractions 53-79 were combined and examined at 280 nm for protein content. Undigested IgG and Fc fragments were removed by passage through a protein A Sepharose column (5 ml bed volume); unbound Fab was eluted with 0.01 M PBS pH 7.4. The eluate was concentrated by vacuum dialysis.

Assay [5] concerns the target Fab fragments of affinity purified anti-steroid antibodies. Description: Scatchard plot of binding of labeled steroid to Fab fragments of affinity purified anti-steroid antibodies. Details: species or system rabbit. To be noted: curved plot with [3H]TA, linear plot with [3H]-dexamethasone; read-out: Kd for Fab fragments of the anti-steroid, from Scatchard plots. The procedure:
FIG. 3. Scatchard plot of the binding of [^3 H] triamcinolone to Fab fragments of affinity purified anti-steroid antibodies. Fab fragments (0.227 micrograms) were incubated with increasing concentrations of [^3 H] triamcinolone (0.4-62.5nM) in the presence of 0.01M phosphate buffered saline pH 7.4 containing 0.1% gelatin in a total volume of 200 microliters. Total and non-specific binding (50 micromoles triamcinolone acetonide) were determined for each of the [^3 H] triamcinolone levels and all points were in duplicate. After incubating 1 hr at room temperature, add 1 ml cold 5% charcoal/dextran (diluted 1:40 in 0.01M PBS containing 0.1% gelatin) and let stand on ice for 10 min. Centrifuge down the charcoal/dextran, decant the supernatant into scintillation vials and determine the radioactivity.

The target of a further assay is T1, glucocorticoid receptor (Rattus norvegicus, UniProt P06536).
T1 sequence (P06536 1-795): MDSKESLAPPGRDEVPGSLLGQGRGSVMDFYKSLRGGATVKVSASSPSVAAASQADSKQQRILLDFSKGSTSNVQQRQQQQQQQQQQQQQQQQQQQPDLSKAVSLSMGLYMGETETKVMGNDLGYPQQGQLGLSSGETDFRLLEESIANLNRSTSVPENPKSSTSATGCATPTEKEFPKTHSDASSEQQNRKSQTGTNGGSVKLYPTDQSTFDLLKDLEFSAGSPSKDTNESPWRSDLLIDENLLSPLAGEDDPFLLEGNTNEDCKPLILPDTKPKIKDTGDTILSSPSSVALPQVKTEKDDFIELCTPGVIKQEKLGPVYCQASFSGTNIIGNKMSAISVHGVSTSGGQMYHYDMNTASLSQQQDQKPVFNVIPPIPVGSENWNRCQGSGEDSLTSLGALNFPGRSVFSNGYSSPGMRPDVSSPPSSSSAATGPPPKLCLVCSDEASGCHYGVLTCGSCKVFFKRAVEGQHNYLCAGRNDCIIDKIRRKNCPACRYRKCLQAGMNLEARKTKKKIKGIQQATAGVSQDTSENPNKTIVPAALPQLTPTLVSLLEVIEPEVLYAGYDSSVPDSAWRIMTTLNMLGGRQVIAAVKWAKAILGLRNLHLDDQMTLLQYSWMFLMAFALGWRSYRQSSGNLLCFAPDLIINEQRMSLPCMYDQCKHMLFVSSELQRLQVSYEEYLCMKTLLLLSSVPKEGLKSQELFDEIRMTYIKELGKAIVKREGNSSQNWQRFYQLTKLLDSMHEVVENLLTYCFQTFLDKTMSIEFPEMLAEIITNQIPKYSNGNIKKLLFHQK

Assay [6] has as its target T2, binding of 8G11-C6 to partially purified glucocorticoid receptor (Rattus norvegicus, UniProt P06536).
T2 construct: the glucocorticoid receptor was partially purified from rat liver cytosol; from tissue; host or cells: liver cytosol of Sprague-Dawley rats, receptor partially purified by the cited method of Gametchu & Harrison
T2 sequence (P06536 1-795): T1 sequence (P06536 1-795)
Description: ELISA inhibition of binding of 8G11-C6 to partially purified glucocorticoid receptor. Conditions: ELISA (FIG. 11). How it is done:
FIG. 11. […] 200 microliters containing 0.54 micrograms protein of a partially purified receptor preparation in 0.1M NaHC03 pH 9.3 was added to the wells of polystyrene plates. These were incubated for 2 hrs at 37° C. Washed 2×with PBS […] 0.02% tween. […] See methods for the methodology employed. The inhibitors used were triamcinolone acetonide ( ), rabbit serum albumin ( ), and triamcinolone - RSA ( ).

“rabbit serum albumin: carrier protein tested alone as inhibitor”: the “effect on the binding of 8G11-C6 to anti-steroid Fab fragments” value (from here on “effect … to anti-steroid Fab fragments”) in assay [1] is “did not affect”.

As to `CC(=O)[C@H]1CC[C@H]2[C@@H]3CCC4=CC(=O)CC[C@]4(C)[C@H]3CC[C@]12C` [Progesterone], the Kd in assay [2], in assay [3] and in assay [4] was 100 µM throughout.

As to `CC1(C)O[C@@H]2C[C@H]3[C@@H]4CCC5=CC(=O)C=C[C@]5(C)[C@@]4(F)[C@@H](O)C[C@]3(C)[C@]2(C(=O)CO)O1` [triamcinolone acetonide], in assay [1], the “effect … to anti-steroid Fab fragments” value was “did not affect”.

For the compound `[3H]C1C2=CC(=O)C=C[C@]2(C)[C@@]2(F)[C@@H](O)C[C@@]3(C)[C@@H](C[C@@H](C)[C@]3(O)C(=O)CO)[C@@H]2C1[3H]` (stereo partly drawn) [[^3 H]-dexamethasone, 6,7[^3 H] dexamethasone], the Kd in assay [5] came to 0.15 µM.

Consider triamcinolone, for which the Kd amounted to 0.0032 µM in assay [2], 0.015 µM in assay [3], 0.015 µM in assay [4] and 0.005 µM at glucocorticoid receptor. The “effect … to anti-steroid Fab fragments” value in assay [1] was “Neither triamcinolone, nor other steroids such as testosterone and estradiol-17β had any effect”.

Consider `C[C@]12CCC(=O)C[C@@H]1CC[C@@H]1[C@@H]2CC[C@]2(C)[C@@H](O)CC[C@@H]12` [Dihydrotestosterone], for which the “Competitive inhibition of binding of [3H] triamcinolone, Rabbit Serum 540 Unprocessed (apparent Kd)” value in assay [2] is recorded as “had no effect”.

On to `C[C@]12C[C@H](O)[C@H]3[C@@H](CCC4=CC(=O)CC[C@@]43C)[C@@H]1CC[C@@H]2C(=O)CO` [Corticosterone], for which the Kd in assay [2] came out at 630 µM; in assay [3], 100 µM; in assay [4], 100 µM.

In the case of `C[C@@H]1C[C@H]2[C@@H]3CCC4=CC(=O)C=C[C@]4(C)[C@@]3(F)[C@@H](O)C[C@]2(C)[C@@]1(O)C(=O)CO` [Dexamethasone], the Kd in assay [2] was 0.12 µM; in assay [3], 0.62 µM; in assay [4], 0.63 µM.

As for `C[C@]12CC[C@H]3[C@@H](CCC4=CC(=O)CC[C@@]43C)[C@@H]1CC[C@@H]2O` [Testosterone], the “Competitive inhibition of binding of [3H] triamcinolone, Rabbit Serum 540 Unprocessed (apparent Kd)” value in assay [2] is given as “not inhibited”. The “Competitive inhibition of binding of [3H] triamcinolone, Affinity purified (apparent Kd)” value in assay [3] is on record as “not inhibited”. The “effect … to anti-steroid Fab fragments” value in assay [1] is “Neither triamcinolone, nor other steroids such as testosterone and estradiol-17β had any effect”. The “effect on the binding of 8G11-C6 to partially purified glucocorticoid receptor” value in assay [6] was “only a slight inhibitory effect”.

With `C[C@]12CCC(=O)C=C1CC[C@@H]1[C@@H]2[C@@H](O)C[C@@]2(C)[C@H]1CC[C@]2(O)C(=O)CO` [Hydrocortisone], the Kd in assay [2] turned out to be 5 µM; in assay [3], 100 µM; in assay [4], 100 µM.

With `C[C@]12CC[C@@H]3c4ccc(O)cc4CC[C@H]3[C@@H]1CC[C@@H]2O` [estradiol-17β], the “effect … to anti-steroid Fab fragments” value in assay [1] was “Neither triamcinolone, nor other steroids such as testosterone and estradiol-17β had any effect”. The “effect on the binding of 8G11-C6 to partially purified glucocorticoid receptor” value in assay [6] was “no effect”.
